Measurements: ChEMBL document CHEMBL5528027, “Target identification, and optimization of dioxygenated amide derivatives as potent antibacterial agents with FabH inhibitory activity” (Eur J Med Chem, 2024)
In brackets after ≈: the same amount, converted by molar mass.

Tests used:
Pseudomonas aeruginosa = experiment: Antibacterial activity against Pseudomonas aeruginosa assessed as reduction in bacterial growth measured after 24 hrs by two-fold serial dilution method; type: functional
[1] = target: T1, Beta-ketoacyl-[acyl-carrier-protein] synthase III (Escherichia coli K-12, UniProt P0A6R0); experiment: Inhibition of Escherichia coli FabH
T1 sequence (P0A6R0 whole entry): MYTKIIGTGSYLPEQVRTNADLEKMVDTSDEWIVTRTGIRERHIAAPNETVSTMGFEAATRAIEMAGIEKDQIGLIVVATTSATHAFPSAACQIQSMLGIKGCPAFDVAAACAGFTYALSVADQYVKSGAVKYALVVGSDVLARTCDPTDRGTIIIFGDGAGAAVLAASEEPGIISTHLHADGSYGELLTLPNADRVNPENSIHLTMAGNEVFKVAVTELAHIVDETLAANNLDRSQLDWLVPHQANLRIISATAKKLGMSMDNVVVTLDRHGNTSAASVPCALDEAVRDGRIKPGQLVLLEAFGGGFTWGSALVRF

Klebsiella pneumoniae = experiment: Antibacterial activity against Klebsiella pneumoniae assessed as reduction in bacterial growth measured after 24 hrs by two-fold serial dilution method; type: functional
Streptococcus pneumoniae = experiment: Antibacterial activity against Streptococcus pneumoniae assessed as reduction in bacterial growth measured after 24 hrs by two-fold serial dilution method; type: functional
Bacillus subtilis = experiment: Antibacterial activity against Bacillus subtilis assessed as reduction in bacterial growth measured after 24 hrs by two-fold serial dilution method; type: functional
Erythrocyte = experiment: Hemolytic activity in human erythrocytes assessed as hemolysis by spectrophotometric analysis; type: toxicity, cell-based
[2] = Cytotoxicity against mouse NIH3T3 cells incubated for 24 hrs by MTT analysis; type: toxicity, cell-based
Staphylococcus aureus = experiment: Antibacterial activity against Staphylococcus aureus assessed as reduction in bacterial growth measured after 24 hrs by two-fold serial dilution method; type: functional
Escherichia coli = experiment: Antibacterial activity against Escherichia coli assessed as reduction in bacterial growth measured after 24 hrs by two-fold serial dilution method; type: functional

| SMILES | MIC (Pseudomonas aeruginosa) | IC50 [1] | MIC (Klebsiella pneumoniae) | MIC (Streptococcus pneumoniae) | MIC (Bacillus subtilis) | MIC (Staphylococcus aureus) | MIC (Escherichia coli) | HC30 (Erythrocyte) | IC50 at 24 h [2] |
| --- | --- | --- | --- | --- | --- | --- | --- | --- | --- |
| O=C(Nc1ccc(C(F)(F)F)cn1)c1ccc2c(c1)OCCCO2 | 6.25 µg/mL (≈ 18.5 µM) | 8.6 µM | 6.25 µg/mL (≈ 18.5 µM) | 25 µg/mL (≈ 73.9 µM) | > 100 µg/mL | 50 µg/mL (≈ 148 µM) | 3.13 µg/mL (≈ 9.25 µM) | > 10 µg/mL | 204 µM |
| O=C(Nc1cccc2ncccc12)c1ccc2c(c1)OCCCO2 | 25 µg/mL (≈ 78 µM) | – | 25 µg/mL (≈ 78 µM) | 25 µg/mL (≈ 78 µM) | 50 µg/mL (≈ 156 µM) | 50 µg/mL (≈ 156 µM) | 50 µg/mL (≈ 156 µM) | – | – |
| O=C(Nc1ccc2cc[nH]c2c1)c1ccc2c(c1)OCCCO2 | 6.25 µg/mL (≈ 20.3 µM) | 13.1 µM | 3.13 µg/mL (≈ 10.2 µM) | 12.5 µg/mL (≈ 40.5 µM) | 12.5 µg/mL (≈ 40.5 µM) | 6.25 µg/mL (≈ 20.3 µM) | 3.13 µg/mL (≈ 10.2 µM) | > 10 µg/mL | 198 µM |
| O=C(Nc1cc(Cl)cc2cccnc12)c1ccc2c(c1)OCCCO2 | 1.56 µg/mL (≈ 4.4 µM) | 4.9 µM | 3.13 µg/mL (≈ 8.82 µM) | 12.5 µg/mL (≈ 35.2 µM) | 12.5 µg/mL (≈ 35.2 µM) | 3.13 µg/mL (≈ 8.82 µM) | 1.56 µg/mL (≈ 4.4 µM) | > 10 µg/mL | 115 µM |
| O=C(Nc1nccc2ccccc12)c1ccc2c(c1)OCCCO2 | 50 µg/mL (≈ 156 µM) | – | 25 µg/mL (≈ 78 µM) | > 100 µg/mL | > 100 µg/mL | 50 µg/mL (≈ 156 µM) | 50 µg/mL (≈ 156 µM) | – | – |
| COc1ccc2[nH]cc(CNC(=O)c3ccc4c(c3)OCCCO4)c2c1 | 50 µg/mL (≈ 142 µM) | – | 50 µg/mL (≈ 142 µM) | > 100 µg/mL | 25 µg/mL (≈ 70.9 µM) | 50 µg/mL (≈ 142 µM) | 25 µg/mL (≈ 70.9 µM) | – | – |
| O=C(NCCc1nc2ccccc2[nH]1)c1ccc2c(c1)OCCCO2 | 50 µg/mL (≈ 148 µM) | – | > 100 µg/mL | 50 µg/mL (≈ 148 µM) | 25 µg/mL (≈ 74.1 µM) | > 100 µg/mL | 25 µg/mL (≈ 74.1 µM) | – | – |
| COc1cc(NC(=O)c2ccc3c(c2)OCCCO3)c2ncccc2c1 | 50 µg/mL (≈ 143 µM) | – | 50 µg/mL (≈ 143 µM) | > 100 µg/mL | > 100 µg/mL | 50 µg/mL (≈ 143 µM) | 50 µg/mL (≈ 143 µM) | – | – |
| O=C(Nc1ccnc2ccccc12)c1ccc2c(c1)OCCCO2 | 50 µg/mL (≈ 156 µM) | – | 50 µg/mL (≈ 156 µM) | 50 µg/mL (≈ 156 µM) | 50 µg/mL (≈ 156 µM) | 25 µg/mL (≈ 78 µM) | 50 µg/mL (≈ 156 µM) | – | – |
| NC[C@H]1O[C@H](O[C@H]2[C@H](O)[C@@H](O[C@H]3O[C@H](CO)[C@@H](O)[C@H](N)[C@H]3O)[C@H](N)C[C@@H]2N)[C@H](N)[C@@H](O)[C@@H]1O [BEKANAMYCIN] | 3.13 µg/mL (≈ 6.47 µM) | – | 3.13 µg/mL (≈ 6.47 µM) | 50 µg/mL (≈ 103 µM) | 1.56 µg/mL (≈ 3.23 µM) | 1.56 µg/mL (≈ 3.23 µM) | 3.13 µg/mL (≈ 6.47 µM) | – | – |
| C#CCCC1(CCNC(=O)c2ccc3c(c2)OCCCO3)N=N1 | 6.25 µg/mL (≈ 19.9 µM) | – | – | – | 6.25 µg/mL (≈ 19.9 µM) | 6.25 µg/mL (≈ 19.9 µM) | 6.25 µg/mL (≈ 19.9 µM) | – | – |
| O=C(Nc1ccc2ccccc2n1)c1ccc2c(c1)OCCCO2 | 25 µg/mL (≈ 78 µM) | – | 50 µg/mL (≈ 156 µM) | 25 µg/mL (≈ 78 µM) | 25 µg/mL (≈ 78 µM) | 25 µg/mL (≈ 78 µM) | 25 µg/mL (≈ 78 µM) | – | – |
| O=C(Nc1cccc2cccnc12)c1ccc2c(c1)OCCCO2 | 25 µg/mL (≈ 78 µM) | – | 50 µg/mL (≈ 156 µM) | 25 µg/mL (≈ 78 µM) | 12.5 µg/mL (≈ 39 µM) | 25 µg/mL (≈ 78 µM) | 12.5 µg/mL (≈ 39 µM) | – | – |
| Cc1ccc2cccc(NC(=O)c3ccc4c(c3)OCCCO4)c2n1 | 12.5 µg/mL (≈ 37.4 µM) | – | 50 µg/mL (≈ 150 µM) | 25 µg/mL (≈ 74.8 µM) | 25 µg/mL (≈ 74.8 µM) | 12.5 µg/mL (≈ 37.4 µM) | 12.5 µg/mL (≈ 37.4 µM) | – | – |
| COc1ccc(NC(=O)c2ccc3c(c2)OCCCO3)c2ncccc12 | 50 µg/mL (≈ 143 µM) | – | > 100 µg/mL | 50 µg/mL (≈ 143 µM) | > 100 µg/mL | > 100 µg/mL | > 100 µg/mL | – | – |

Continued, in another order:

| MIC (Pseudomonas aeruginosa) | IC50 [1] | MIC (Klebsiella pneumoniae) | MIC (Streptococcus pneumoniae) | MIC (Bacillus subtilis) | MIC (Staphylococcus aureus) | MIC (Escherichia coli) | SMILES | HC30 (Erythrocyte) | IC50 at 24 h [2] |
| --- | --- | --- | --- | --- | --- | --- | --- | --- | --- |
| 50 µg/mL (≈ 125 µM) | – | 50 µg/mL (≈ 125 µM) | 50 µg/mL (≈ 125 µM) | 50 µg/mL (≈ 125 µM) | > 100 µg/mL | > 100 µg/mL | CCOC(=O)c1c(NC(=O)c2ccc3c(c2)OCCCO3)sc2c1CCCC2 | – | – |
| 3.13 µg/mL (≈ 11.3 µM) | 38.2 µM | 6.25 µg/mL (≈ 22.6 µM) | 12.5 µg/mL (≈ 45.2 µM) | 6.25 µg/mL (≈ 22.6 µM) | 3.13 µg/mL (≈ 11.3 µM) | 6.25 µg/mL (≈ 22.6 µM) | CN1CCN(C(=O)c2ccc3c(c2)OCCCO3)CC1 | > 10 µg/mL | 175 µM |
| > 100 µg/mL | – | > 100 µg/mL | > 100 µg/mL | 50 µg/mL (≈ 114 µM) | > 100 µg/mL | > 100 µg/mL | O=C(c1ccc2c(c1)OCCCO2)N1CCN(C(=O)c2ccc3c(c2)OCCCO3)CC1 | – | – |
| 6.25 µg/mL (≈ 22.7 µM) | – | – | – | 12.5 µg/mL (≈ 45.4 µM) | 6.25 µg/mL (≈ 22.7 µM) | 6.25 µg/mL (≈ 22.7 µM) | CC1(CCNC(=O)c2ccc3c(c2)OCCCO3)N=N1 | – | – |
| 25 µg/mL (≈ 86.4 µM) | – | – | – | 25 µg/mL (≈ 86.4 µM) | 25 µg/mL (≈ 86.4 µM) | 12.5 µg/mL (≈ 43.2 µM) | CC1(CCCNC(=O)c2ccc3c(c2)OCCCO3)N=N1 | – | – |
| 25 µg/mL (≈ 95 µM) | – | 12.5 µg/mL (≈ 47.5 µM) | 50 µg/mL (≈ 190 µM) | 25 µg/mL (≈ 95 µM) | 12.5 µg/mL (≈ 47.5 µM) | 25 µg/mL (≈ 95 µM) | O=C(c1ccc2c(c1)OCCCO2)N1CCOCC1 | – | – |
| 25 µg/mL (≈ 81.6 µM) | – | > 100 µg/mL | 25 µg/mL (≈ 81.6 µM) | > 100 µg/mL | 25 µg/mL (≈ 81.6 µM) | 50 µg/mL (≈ 163 µM) | O=C(c1ccc2c(c1)OCCCO2)N1CCN(CCO)CC1 | – | – |
| 50 µg/mL (≈ 185 µM) | – | 50 µg/mL (≈ 185 µM) | > 100 µg/mL | 25 µg/mL (≈ 92.5 µM) | 50 µg/mL (≈ 185 µM) | 12.5 µg/mL (≈ 46.2 µM) | O=C(Nc1ccccn1)c1ccc2c(c1)OCCCO2 | – | – |
| 50 µg/mL (≈ 176 µM) | – | > 100 µg/mL | > 100 µg/mL | > 100 µg/mL | 50 µg/mL (≈ 176 µM) | 25 µg/mL (≈ 87.9 µM) | Cc1ccc(NC(=O)c2ccc3c(c2)OCCCO3)cn1 | – | – |
| 50 µg/mL (≈ 172 µM) | – | 50 µg/mL (≈ 172 µM) | 50 µg/mL (≈ 172 µM) | > 100 µg/mL | 25 µg/mL (≈ 86.1 µM) | 25 µg/mL (≈ 86.1 µM) | CCN1CCN(C(=O)c2ccc3c(c2)OCCCO3)CC1 | – | – |
| 50 µg/mL (≈ 202 µM) | – | > 100 µg/mL | > 100 µg/mL | > 100 µg/mL | > 100 µg/mL | > 100 µg/mL | O=C(c1ccc2c(c1)OCCCO2)N1CCCC1 | – | – |
| 50 µg/mL (≈ 142 µM) | – | 25 µg/mL (≈ 70.9 µM) | 25 µg/mL (≈ 70.9 µM) | > 100 µg/mL | 50 µg/mL (≈ 142 µM) | 50 µg/mL (≈ 142 µM) | O=C(c1ccc2c(c1)OCCCO2)N1CCN(Cc2ccccc2)CC1 | – | – |
| 50 µg/mL (≈ 185 µM) | – | 25 µg/mL (≈ 92.5 µM) | 50 µg/mL (≈ 185 µM) | > 100 µg/mL | 50 µg/mL (≈ 185 µM) | 25 µg/mL (≈ 92.5 µM) | O=C(Nc1cccnc1)c1ccc2c(c1)OCCCO2 | – | – |
| 25 µg/mL (≈ 81.8 µM) | – | 25 µg/mL (≈ 81.8 µM) | 50 µg/mL (≈ 164 µM) | 25 µg/mL (≈ 81.8 µM) | 25 µg/mL (≈ 81.8 µM) | 25 µg/mL (≈ 81.8 µM) | O=C(Nc1cncc(Cl)n1)c1ccc2c(c1)OCCCO2 | – | – |
| 50 µg/mL (≈ 184 µM) | – | > 100 µg/mL | 50 µg/mL (≈ 184 µM) | > 100 µg/mL | 50 µg/mL (≈ 184 µM) | 50 µg/mL (≈ 184 µM) | O=C(Nc1ccncn1)c1ccc2c(c1)OCCCO2 | – | – |
| 25 µg/mL (≈ 95.7 µM) | – | 25 µg/mL (≈ 95.7 µM) | 25 µg/mL (≈ 95.7 µM) | 12.5 µg/mL (≈ 47.8 µM) | 25 µg/mL (≈ 95.7 µM) | 25 µg/mL (≈ 95.7 µM) | O=C(c1ccc2c(c1)OCCCO2)N1CCCCC1 | – | – |
